Data from ChEMBL document CHEMBL1137918, “Synthesis and antiproliferative activity of 2-aryl-4-oxo-thiazolidin-3-yl-amides for prostate cancer” (Bioorg Med Chem Lett, 2004).

Columns and labels:
Type in all cases: functional, cell-based
[1] = Antiproliferative activity was evaluated against human prostate PPC-1 cancer cell lines using the sulforhodamine B ([…]) assay
[2] = tested on: LNCaP; assay: Antiproliferative activity was evaluated against human prostate LNCaP cancer cell lines using the sulforhodamine B ([…]) assay
[3] = tested on: PC-3; assay: Antiproliferative activity was evaluated against human prostate PC-3 cancer cell lines using the sulforhodamine B ([…]) assay
[4] = Antiproliferative activity was evaluated against human prostate TSU cancer cell lines using the sulforhodamine B ([…]) assay
[5] = tested on: DU-145; assay: Antiproliferative activity was evaluated against human prostate DU-145 cancer cell lines using the sulforhodamine B ([…]) assay

`COc1ccc(CCNC(=O)CN2C(=O)CSC2c2ccccc2)cc1OC` (centres undefined) showed an IC50 [1] greater than 100 µM, an IC50 [2] greater than 100 µM and an IC50 [3] greater than 100 µM. For the same molecule, the IC50 [4] was greater than 100 µM.
`CCCCCCCCCCCCCCCCCCNCCN1CCSC1c1ccccc1` (centres undefined) gave an IC50 [1] of 12 µM, an IC50 [2] greater than 20 µM and an IC50 [3] greater than 20 µM. The IC50 [5] was 15.8 µM and the IC50 [4] was 6.1 µM.
